The compounds below were run against T1, purified recombinant full length PKC theta (Panvera, P2996) (Homo sapiens, UniProt Q04759) (assay: Radioactive kinase assay for inhibition of full length (FL) PKCθ). Conditions: average value.
T1 construct: purified recombinant full length PKC theta (Panvera, P2996); purchased Panvera P2996
T1 sequence (Q04759 whole entry): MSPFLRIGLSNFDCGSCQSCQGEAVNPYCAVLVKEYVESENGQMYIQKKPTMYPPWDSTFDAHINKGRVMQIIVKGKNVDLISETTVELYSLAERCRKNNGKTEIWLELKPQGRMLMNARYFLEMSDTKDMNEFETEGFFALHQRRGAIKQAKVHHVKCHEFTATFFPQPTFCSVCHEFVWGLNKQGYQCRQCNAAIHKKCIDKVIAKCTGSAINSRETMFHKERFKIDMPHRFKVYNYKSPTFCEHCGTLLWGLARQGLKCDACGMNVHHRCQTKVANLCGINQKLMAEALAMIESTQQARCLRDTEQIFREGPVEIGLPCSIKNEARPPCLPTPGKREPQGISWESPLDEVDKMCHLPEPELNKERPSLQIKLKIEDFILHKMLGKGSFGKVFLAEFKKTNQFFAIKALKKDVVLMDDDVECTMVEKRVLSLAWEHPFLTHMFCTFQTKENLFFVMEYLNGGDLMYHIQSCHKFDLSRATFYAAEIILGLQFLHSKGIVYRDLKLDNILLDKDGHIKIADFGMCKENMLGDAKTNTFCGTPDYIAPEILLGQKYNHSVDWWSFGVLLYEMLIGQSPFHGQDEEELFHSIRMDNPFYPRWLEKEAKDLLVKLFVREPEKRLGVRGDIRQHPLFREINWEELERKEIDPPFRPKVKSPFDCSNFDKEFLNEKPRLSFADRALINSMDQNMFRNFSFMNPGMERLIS
Format: biochemical
Protocol: This assay is based on the phosphorylation of a biotinylated substrate by a kinase utilizing radiolabeled ATP (ATP γ P33). The substrate was a biotinylated peptide with a sequence of biotin-[…]-C(O)NH2. […] The assay buffer was composed of 100 mM Hepes, pH7.5, 2 mM MgCl2, 20 mM β-glycerophosphate and 0.008% TritonX 100. A reaction mixture of ATP, ATP γ P33 (PerkinElmer), DTT, and the enzyme was prepared in the assay buffer and added to a 96-well polypropylene plate. The compound (diluted in DMSO in a separate 96-well polypropylene plate) was added to the reaction mixture and incubated at room temperature. Following the incubation, the peptide substrate was added to the reaction mixture to initiate the enzymatic reaction. The reaction was terminated with the addition of a stop solution (100 mM EDTA, 0.2% TritonX100, and 20 mM NaHPO4) and transferred from the assay plate to a washed streptavidin-coated 96-well scintiplate (PerkinElmer). […] Counts were recorded for each well as corrected counts per minute (CCPM). The counts were considered corrected because they were adjusted according to a P33 normalization protocol, which corrects for efficiency and background differences between the instrument detectors (software version 4.40.01).
A Radioactive Kinase Assay for Inhibition of Full Length (FL) PKCθ Inhibitors
This assay differs from what was described above in that the enzyme used was purified recombinant full length PKC theta (Panvera, P2996).
`N#Cc1cncc(-c2cccc(-c3cccc(N)c3)c2)c1Nc1ccc2[nH]ccc2c1` [Compound 117, 5-(3′-aminobiphenyl-3-yl)-4-(1H-indol-5-ylamino)nicotinonitrile] was tested, and the IC50 was 140 nM.
With `N#Cc1ccc(-c2cccc(-c3cncc(C#N)c3Nc3ccc4[nH]ccc4c3)c2)cc1` [Compound 118, 5-(4′-cyanobiphenyl-3-yl)-4-(1H-indol-5-ylamino)nicotinonitrile] the IC50 was 90 nM.
In the case of `N#Cc1cncc(-c2cccc(-c3ccncc3)c2)c1Nc1ccc2[nH]ccc2c1` [Compound 121, 4-(1H-indol-5-ylamino)-5-(3-pyridin-4-ylphenyl)nicotinonitrile], the IC50 is reported as 170 nM.
`CN(C)C(=O)c1ccc(-c2cccc(-c3cncc(C#N)c3Nc3ccc4[nH]ccc4c3)c2)cc1` [Compound 122, 3′-[5-cyano-4-(1H-indol-5-ylamino)pyridin-3-yl]-N,N-dimethylbiphenyl-4-carboxamide] gave an IC50 of 340 nM.
Compound `Cc1cccc(-c2cccc(-c3cncc(C#N)c3Nc3ccc4[nH]ccc4c3)c2)c1` [Compound 127, 4-(1H-indol-5-ylamino)-5-(3′-methylbiphenyl-3-yl)nicotinonitrile] has an IC50 of 290 nM.
For `N#Cc1cncc(-c2cccc(-c3cccc(C(=O)O)c3)c2)c1Nc1ccc2[nH]ccc2c1` [Compound 133, 3′-[5-cyano-4-(1H-indol-5-ylamino)pyridin-3-yl]biphenyl-3-carboxylic acid], the IC50 was 370 nM.
`N#Cc1cncc(-c2cccc(-c3ccc(C(=O)O)cc3)c2)c1Nc1ccc2[nH]ccc2c1` [Compound 134, 3′-[5-cyano-4-(1H-indol-5-ylamino)pyridin-3-yl]biphenyl-4-carboxylic acid] gave an IC50 of 390 nM.
Work on `N#Cc1cncc(-c2cccc(-c3cccnc3)c2)c1Nc1ccc2[nH]ccc2c1` [Compound 137, 4-(1H-indol-5-ylamino)-5-(3-pyridin-3-ylphenyl)nicotinonitrile] yielded an IC50 of 70 nM.
`N#Cc1cncc(-c2cccc(-c3ccsc3)c2)c1Nc1ccc2[nH]ccc2c1` [Compound 141, 4-(1H-indol-5-ylamino)-5-[3-(3-thienyl)phenyl]nicotinonitrile] was tested, and the IC50 was 90 nM.
`N#Cc1cncc(-c2ccccc2-c2ccccc2Cl)c1Nc1ccc2[nH]ccc2c1` [Compound 143, 5-(2′-chlorobiphenyl-2-yl)-4-(1H-indol-5-ylamino)nicotinonitrile] was tested, and the IC50 was 910 nM.
In the case of `N#Cc1cncc(-c2ccccc2-c2cccc(Cl)c2)c1Nc1ccc2[nH]ccc2c1` [Compound 144, 5-(3′-chlorobiphenyl-2-yl)-4-(1H-indol-5-ylamino)nicotinonitrile], the IC50 is reported as 910 nM.
`N#Cc1cncc(-c2ccccc2-c2ccc(Cl)cc2)c1Nc1ccc2[nH]ccc2c1` [Compound 145, 5-(4′-chlorobiphenyl-2-yl)-4-(1H-indol-5-ylamino)nicotinonitrile] showed an IC50 of 1920 nM.
`N#Cc1cncc(-c2ccccc2-c2ccsc2)c1Nc1ccc2[nH]ccc2c1` [Compound 146, 4-(1H-indol-5-ylamino)-5-[2-(3-thienyl)phenyl]nicotinonitrile] gave an IC50 of 1330 nM.
Work on `CC(=O)Nc1cccc(-c2cncc(C#N)c2Nc2ccc3[nH]ccc3c2)c1` [Compound 152, N-{3-[5-cyano-4-(1H-indol-5-ylamino)pyridin-3-yl]phenyl}acetamide] yielded an IC50 of 1940 nM.
Work on `COCCOc1cc(-c2cncc(C#N)c2Nc2cccc3[nH]ccc23)ccc1OC` [Compound 153, 4-(1H-indol-4-ylamino)-5-[4-methoxy-3-(2-methoxyethoxy)phenyl]nicotinonitrile] yielded an IC50 of 40 nM.
`COCCOc1cc(-c2cncc(C#N)c2Nc2ccc3cc[nH]c3c2)ccc1OC` [Compound 155, 4-(1H-indol-6-ylamino)-5-[4-methoxy-3-(2-methoxyethoxy)phenyl]nicotinonitrile] gave an IC50 of 7800 nM.
In the case of `COCCOc1cc(-c2cncc(C#N)c2Nc2ccc3ncsc3c2)ccc1OC` [Compound 156, 4-(1,3-benzothiazol-6-ylamino)-5-[4-methoxy-3-(2-methoxyethoxy)phenyl]nicotinonitrile], the IC50 is reported as > 20000 nM.
Work on `COCCOc1cc(-c2cncc(C#N)c2Nc2ccc3[nH]c(C)cc3c2)ccc1OC` [Compound 157, 5-[4-methoxy-3-(2-methoxyethoxy)phenyl]-4-[(2-methyl-1H-indol-5-yl)amino]nicotinonitrile] yielded an IC50 of 550 nM.
In the case of `COCCOc1cc(-c2cncc(C#N)c2Nc2ccc3[nH]nnc3c2)ccc1OC` [Compound 158, 4-(1H-1,2,3-benzotriazol-5-ylamino)-5-[4-methoxy-3-(2-methoxyethoxy)phenyl]nicotinonitrile], the IC50 is reported as 37400 nM.
For `COCCOc1ccc(-c2cncc(C#N)c2Nc2ccc3[nH]ccc3c2)cc1OC` [Compound 160, 4-(1H-indol-5-ylamino)-5-[3-methoxy-4-(2-methoxyethoxy)phenyl]nicotinonitrile], the IC50 was 140 nM.
`COCCOc1ccc(-c2cncc(C#N)c2Nc2ccc3cc[nH]c3c2)cc1OC` [Compound 161, 4-(1H-indol-6-ylamino)-5-[3-methoxy-4-(2-methoxyethoxy)phenyl]nicotinonitrile] showed an IC50 of 5500 nM.
With `COCCOc1ccc(-c2cncc(C#N)c2Nc2ccc3ncsc3c2)cc1OC` [Compound 162, 4-(1,3-benzothiazol-6-ylamino)-5-[3-methoxy-4-(2-methoxyethoxy)phenyl]nicotinonitrile] the IC50 was 15000 nM.
Compound `COCCOc1ccc(-c2cncc(C#N)c2Nc2ccc3[nH]c(C)cc3c2)cc1OC` [Compound 163, 5-[3-methoxy-4-(2-methoxyethoxy)phenyl]-4-[(2-methyl-1H-indol-5-yl)amino]nicotinonitrile] has an IC50 of 320 nM.
`N#Cc1cncc(-c2cccc(OCCCl)c2)c1Nc1cccc2[nH]ccc12` [Compound 165, 5-[3-(2-chloroethoxy)phenyl]-4-(1H-indol-4-ylamino)nicotinonitrile] was tested, and the IC50 was 20 nM.
Compound `N#Cc1cncc(-c2cccc(OCCCl)c2)c1Nc1ccc2cc[nH]c2c1` [Compound 166, 5-[3-(2-chloroethoxy)phenyl]-4-(1H-indol-6-ylamino)nicotinonitrile] has an IC50 of 3830 nM.
`N#Cc1cncc(-c2cccc(OCCCl)c2)c1Nc1ccc2[nH]ccc2c1` [Compound 167, 5-[3-(2-chloroethoxy)phenyl]-4-(1H-indol-5-ylamino)nicotinonitrile] gave an IC50 of 110 nM.
In the case of `N#Cc1cncc(-c2cccc(OCCN3CCCC3)c2)c1Nc1cccc2[nH]ccc12` [Compound 169, 4-(1H-indol-4-ylamino)-5-[3-(2-pyrrolidin-1-ylethoxy)phenyl]nicotinonitrile], the IC50 is reported as 30 nM.
In the case of `N#Cc1cncc(-c2cccc(OCCN3CCOCC3)c2)c1Nc1cccc2[nH]ccc12` [Compound 170, 4-(1H-indol-4-ylamino)-5-[3-(2-morpholin-4-ylethoxy)phenyl]nicotinonitrile], the IC50 is reported as 20 nM.
With `N#Cc1cncc(-c2cccc(OCCN3CCCC3)c2)c1Nc1ccc2cc[nH]c2c1` [Compound 172, 4-(1H-indol-6-ylamino)-5-[3-(2-pyrrolidin-1-ylethoxy)phenyl]nicotinonitrile] the IC50 was 2590 nM.
`N#Cc1cncc(-c2cccc(OCCN3CCOCC3)c2)c1Nc1ccc2cc[nH]c2c1` [Compound 173, 4-(1H-indol-6-ylamino)-5-[3-(2-morpholin-4-ylethoxy)phenyl]nicotinonitrile] was tested, and the IC50 was 2630 nM.
With `N#Cc1cncc(-c2cccc(OCCN3CCCC3)c2)c1Nc1ccc2[nH]ccc2c1` [Compound 174, 4-(1H-indol-5-ylamino)-5-[3-(2-pyrrolidin-1-ylethoxy)phenyl]nicotinonitrile] the IC50 was 70 nM.

These compounds were tested against T2, human PKCθ full length enzyme (Homo sapiens, UniProt Q04759) (assay: PKCθ IMAP assay (fluorescence polarization)). Conditions: human PKCθ full length enzyme, IMAP; average value; read-out: IC50 PKCθ IMAP.
T2 construct: human PKCθ full length enzyme (Panvera Cat# P2996); purchased Panvera P2996
T2 sequence (Q04759 whole entry): as above
Format: biochemical
In the case of `Cc1c(Nc2c(C#N)cncc2-c2ccc3cc[nH]c3c2)ccc2[nH]ccc12` [Compound 588, 5-(1H-indol-6-yl)-4-[(4-methyl-1H-indol-5-yl)amino]nicotinonitrile], the IC50 is reported as 57 nM.
`Cc1c(Nc2c(C#N)cncc2-c2cnc3ccccc3c2)ccc2[nH]ccc12` [Compound 589, 4-[(4-methyl-1H-indol-5-yl)amino]-5-quinolin-3-ylnicotinonitrile] was tested, and the IC50 was 191 nM.
`Cc1c(Nc2c(C#N)cncc2-c2cccc3cccnc23)ccc2[nH]ccc12` [Compound 590, 4-[(4-methyl-1H-indol-5-yl)amino]-5-quinolin-8-ylnicotinonitrile] was tested, and the IC50 was 972 nM.
`Cc1c(Nc2c(C#N)cncc2-c2ccc3occc3c2)ccc2[nH]ccc12` [Compound 591, 5-(1-benzofuran-5-yl)-4-[(4-methyl-1H-indol-5-yl)amino]nicotinonitrile] gave an IC50 of 19.7 nM.
In the case of `Cc1c(Nc2c(C#N)cncc2-c2cccc3ncccc23)ccc2[nH]ccc12` [Compound 592, 4-(4-methyl-1H-indol-5-ylamino)-5-(quinolin-5-yl)nicotinonitrile], the IC50 is reported as 6.9 nM.
Compound `Cc1c(Nc2c(C#N)cncc2-c2ccc3c(c2)sc2ccccc23)ccc2[nH]ccc12` [Compound 593, 5-(dibenzo[b,d]thiophen-3-yl)-4-(4-methyl-1H-indol-5-ylamino)nicotinonitrile] has an IC50 of 120 nM.
`Cc1c(Nc2c(C#N)cncc2-c2ccc3sccc3c2)ccc2[nH]ccc12` [Compound 594, 5-(benzo[b]thiophen-5-yl)-4-(4-methyl-1H-indol-5-ylamino)nicotinonitrile] gave an IC50 of 38 nM.
`Cc1c(Nc2c(C#N)cncc2-c2cccc3[nH]ccc23)ccc2[nH]ccc12` [Compound 595, 5-(1H-indol-4-yl)-4-(4-methyl-1H-indol-5-ylamino)nicotinonitrile] showed an IC50 of 46 nM.
